The source of these data is patent US12653798B2, “Fixed combination medicine for the control and management of neuropathic pain” (LABORATORIOS SILANES S.A. DE C.V., priority 2020, dated 2026).

SMILES strings stand for the structures.

For data set [1] the following is noted: in vivo; cited from earlier work.
Data set [2] can be described thus: Dissolution profile tests. It counts as physicochemical.

What is called Cmax is the highest concentration seen after dosing.

Regarding `O=C(O)Cc1ccccc1Nc1c(Cl)cccc1Cl` [Diclofenac], in data set [1], the AUC is recorded as 4.4 ± 0.08 μ · h/mL, the Bioavailability is on record as 50-60%, the Cmax is 100 to 2200 ng/mL and the t1/2 was 1.0 to 2.0 h. Further, the tmax in data set [1] is reported as 1.98 h.
Take `CC(C)Cc1ccc(C(C)C(=O)O)cc1` (centres unmarked) [Ibuprofen]: in data set [1], the AUC is reported as 70 μ · h/mL, the Bioavailability is 80%, the Cmax is 20000 ng/mL and the tmax is on record as 2 h.
In the case of `O=C(c1ccccc1)c1ccc2n1CCC2C(=O)O` (centres unmarked) [Ketorolac], in data set [1], the AUC was 4.81 μ · h/mL, the Bioavailability is given as 80%, the Cmax is 5420 ng/mL and the t1/2 is 3.0 to 6.0 h. Besides, in data set [1], the tmax is 0.33 to 1.0 h.
Consider `Cc1cnc(NC(=O)C2=C(O)c3ccccc3S(=O)(=O)N2C)s1` [Meloxicam], for which, in data set [1], the AUC is 28.8 μ · h/mL, the Cmax was 1620 ± 200 ng/mL and the tmax was 3.0 to 6.0 h.
Turning to `Cc1ncc(CO)c(CO)c1O.Cl` [pyridoxine hydrochloride], the figures for the “% dissolved” value in data set [2] (t 0 min), in data set [2] (t 10 min) and in data set [2] (t 60 min) were 0.00%, 95.38% and 90.54%, respectively.
